Data from ChEMBL document CHEMBL5725871, “Indanylaminopyridylcyclopropanecarboxylic acids, pharmaceutical compositions and uses thereof” (2018).

Key:
Cytochrome P450 2C8 = molecular target: T1, Cytochrome P450 2C8 (Homo sapiens, UniProt P10632); assay: (§1) All assays are carried out on a robotic system in 96 well plates. The final incubation volume contains TRIS buffer (0.1 M), MgCl2 (5 mM), human liver microsomes (0.05 mg/mL), amodiaquine (1 μM) and the test compound at five different concentrations or no compound (high control) in duplicate (e.g. highest concentration 10-50 μM with subsequent serial 1:4 dilutions). Following a short preincubation period, reactions are started with the cofactor (NADPH, 1 mM) and stopped by cooling the incubation down to 8° C. and subsequently by addition of one volume of acetonitrile. An internal standard solution¿the stable isotope d5-desethylamodiaquine is added after quenching of incubations. Peak area analyte (=metabolite formed) and internal standard is determined by LC-MS/MS. The resulting peak area ratio analyte to internal standard in these incubations is compared to a control activity containing no test compound. Within each of the assay runs, the IC50 of a positive control inhibitor (Montelukast) is determined.
T1 sequence (P10632 whole entry): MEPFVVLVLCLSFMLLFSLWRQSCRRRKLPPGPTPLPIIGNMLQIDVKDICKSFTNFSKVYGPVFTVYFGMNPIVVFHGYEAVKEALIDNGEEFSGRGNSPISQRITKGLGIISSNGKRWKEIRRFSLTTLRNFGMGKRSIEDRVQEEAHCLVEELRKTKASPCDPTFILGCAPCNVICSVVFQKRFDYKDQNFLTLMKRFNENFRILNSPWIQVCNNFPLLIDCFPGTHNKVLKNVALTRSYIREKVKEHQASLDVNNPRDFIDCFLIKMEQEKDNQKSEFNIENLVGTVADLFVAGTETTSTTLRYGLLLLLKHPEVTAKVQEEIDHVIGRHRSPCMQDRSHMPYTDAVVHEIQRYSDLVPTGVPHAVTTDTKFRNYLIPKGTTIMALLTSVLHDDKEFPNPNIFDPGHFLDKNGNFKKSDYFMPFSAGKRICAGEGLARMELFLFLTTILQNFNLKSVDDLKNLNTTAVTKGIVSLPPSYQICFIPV

Cytochrome P450 2C9 = Cytochrome P450 2C9 (Homo sapiens, UniProt P11712); assay: as §1, with “(0.1” for “(0.05”, “diclofenac (10” for “amodiaquine (1”, “(e.g.,” for “(e.g.”, “solution the” for “solution¿the”, “13C6-hydroxydiclofenac” for “d5-desethylamodiaquine”, “(sulfaphenazole)” for “(Montelukast)”
Sequence of Cytochrome P450 2C9 (P11712 whole entry): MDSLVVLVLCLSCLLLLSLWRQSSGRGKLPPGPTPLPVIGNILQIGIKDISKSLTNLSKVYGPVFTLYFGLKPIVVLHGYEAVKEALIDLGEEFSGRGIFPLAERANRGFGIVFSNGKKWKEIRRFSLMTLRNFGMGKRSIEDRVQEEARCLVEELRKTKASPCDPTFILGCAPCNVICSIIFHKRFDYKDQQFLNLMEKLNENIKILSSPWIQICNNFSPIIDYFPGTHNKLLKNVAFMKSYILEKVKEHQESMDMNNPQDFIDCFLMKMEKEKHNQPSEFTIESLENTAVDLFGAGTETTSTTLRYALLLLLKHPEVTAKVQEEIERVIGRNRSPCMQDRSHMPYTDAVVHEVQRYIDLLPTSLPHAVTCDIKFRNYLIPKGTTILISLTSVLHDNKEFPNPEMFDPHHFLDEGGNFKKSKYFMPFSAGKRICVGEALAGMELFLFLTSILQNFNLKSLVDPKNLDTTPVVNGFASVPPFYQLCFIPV

SMILES	IC50 (Cytochrome P450 2C8) [µM]	IC50 (Cytochrome P450 2C9) [µM]
Cc1cc(C(=O)NCC(C)(C)O)cc(C)c1-c1ccc(F)c2c1CC[C@H]2Nc1ccc([C@H]2C[C@@H]2C(=O)O)nc1	10	31
Cc1cccc(C)c1-c1ccc(F)c2c1CC[C@H]2Nc1ccc([C@H]2C[C@@H]2C(=O)O)nc1	5	7
Cc1c(C#N)cccc1-c1ccc(F)c2c1CC[C@H]2Nc1ccc([C@H]2C[C@@H]2C(=O)O)nc1	9	10
